One may read the inhibition as the percentage by which the read-out fell short of the control. One may read the IC50 as the concentration at which inhibition is half-maximal.

Assay [1] is described as follows: Antioxidant activity assessed as inhibition of ABTS free radicals after 30 mins by UV-visible spectrophotometer analysis relative to control. In kind it is functional.
The nature of assay [2]: Antioxidant activity assessed as inhibition of ABTS free radicals at 1 mM after 30 mins by UV-visible spectrophotometer analysis relative to control. It counts as functional.
For assay [3], the system named is Radical scavenging activity. The assay can be described thus: Antioxidant activity assessed as inhibition of DPPH free radicals at 1 mM after 30 mins by UV-visible spectrophotometer analysis relative to control. It counts as functional. For orientation: Loss of DPPH colour is used to gauge radical scavenging.
Assay [4] has as its system Radical scavenging activity. The assay can be described thus: Antioxidant activity assessed as inhibition of DPPH free radicals at 0.1 mM after 30 mins by UV-visible spectrophotometer analysis relative to control. In kind it is functional.
Assay [5] is described as follows: Antagonist activity at VGCC in Sprague-Dawley rat brain synaptoneurosomes assessed as inhibition of Kcl-induced calcium flux at 100 uM after 5 mins using FURA-2AM by fluorescent spectrometer analysis relative to control. It counts as functional. (In general: A change in cytosolic calcium serves as a functional read-out for many receptors and channels.)
Assay [6] can be described thus: Antagonist activity at NMDAR in Sprague-Dawley rat brain synaptoneurosomes assessed as inhibition of NMDA/glycine-induced calcium flux at 100 uM after 5 mins using FURA-2AM by fluorescent spectrometer analysis relative to control. In kind it is functional.
In assay [7] the target is Nitric oxide synthase 1 (Rattus norvegicus, UniProt P29476). The assay can be described thus: Inhibition of nNOS in Sprague-Dawley rat brain homogenates assessed as conversion of oxyhemoglobin to methemoglobin measured for 10 mins by UV-visible spectrophotometer analysis.
Sequence of Nitric oxide synthase 1 (P29476 whole entry): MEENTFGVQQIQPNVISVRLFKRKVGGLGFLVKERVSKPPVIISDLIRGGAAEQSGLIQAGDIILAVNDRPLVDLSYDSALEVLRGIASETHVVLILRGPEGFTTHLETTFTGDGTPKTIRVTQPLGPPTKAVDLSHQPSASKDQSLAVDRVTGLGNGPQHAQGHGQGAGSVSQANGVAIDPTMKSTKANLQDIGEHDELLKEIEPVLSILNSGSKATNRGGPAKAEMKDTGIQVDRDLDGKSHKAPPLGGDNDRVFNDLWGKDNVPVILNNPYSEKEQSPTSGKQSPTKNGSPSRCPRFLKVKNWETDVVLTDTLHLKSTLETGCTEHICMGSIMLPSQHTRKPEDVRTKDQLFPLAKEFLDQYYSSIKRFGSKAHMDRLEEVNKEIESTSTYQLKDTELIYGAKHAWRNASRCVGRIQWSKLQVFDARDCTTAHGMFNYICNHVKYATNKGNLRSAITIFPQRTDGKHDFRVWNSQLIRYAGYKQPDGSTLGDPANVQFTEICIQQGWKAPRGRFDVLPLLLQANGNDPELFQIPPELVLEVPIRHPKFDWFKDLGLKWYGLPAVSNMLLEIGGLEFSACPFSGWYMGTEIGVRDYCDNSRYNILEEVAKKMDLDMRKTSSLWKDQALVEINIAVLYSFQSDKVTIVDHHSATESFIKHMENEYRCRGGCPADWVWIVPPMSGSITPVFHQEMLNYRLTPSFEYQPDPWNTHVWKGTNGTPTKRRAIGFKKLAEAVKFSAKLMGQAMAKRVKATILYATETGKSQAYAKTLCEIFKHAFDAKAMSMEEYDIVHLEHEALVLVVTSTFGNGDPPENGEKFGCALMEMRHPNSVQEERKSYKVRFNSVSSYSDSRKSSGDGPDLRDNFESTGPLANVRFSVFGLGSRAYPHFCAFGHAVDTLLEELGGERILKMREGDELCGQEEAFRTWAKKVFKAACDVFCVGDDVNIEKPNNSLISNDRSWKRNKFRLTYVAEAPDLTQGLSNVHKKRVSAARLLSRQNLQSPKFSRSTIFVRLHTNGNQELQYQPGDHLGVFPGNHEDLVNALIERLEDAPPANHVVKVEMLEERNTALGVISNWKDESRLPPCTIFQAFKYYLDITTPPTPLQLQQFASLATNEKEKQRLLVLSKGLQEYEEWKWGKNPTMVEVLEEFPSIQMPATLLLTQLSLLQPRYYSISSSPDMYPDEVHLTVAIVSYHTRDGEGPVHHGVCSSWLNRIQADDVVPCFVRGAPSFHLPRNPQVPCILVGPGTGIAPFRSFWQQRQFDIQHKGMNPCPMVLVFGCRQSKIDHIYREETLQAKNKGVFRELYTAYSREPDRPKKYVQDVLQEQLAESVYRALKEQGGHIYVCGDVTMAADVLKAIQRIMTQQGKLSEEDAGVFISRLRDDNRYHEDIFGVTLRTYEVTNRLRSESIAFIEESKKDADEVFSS
Assay [8] is described as follows: Antioxidant activity assessed as inhibition of ABTS free radicals at 0.1 mM after 30 mins by UV-visible spectrophotometer analysis relative to control. It counts as functional.
Assay [9] is described as follows: Antioxidant activity assessed as inhibition of ABTS free radicals at 0.01 mM after 30 mins by UV-visible spectrophotometer analysis relative to control. It counts as functional.
For assay [10], the system named is Radical scavenging activity. The assay can be described thus: Antioxidant activity assessed as inhibition of DPPH free radicals at 0.01 mM after 30 mins by UV-visible spectrophotometer analysis relative to control. It counts as functional.
Assay [11] has as its system Radical scavenging activity. The assay can be described thus: Antioxidant activity assessed as inhibition of DPPH free radicals after 30 mins by UV-visible spectrophotometer analysis relative to control. In kind it is functional.

For `NC12CC3CC(CC(C3)C1)C2` [AMANTADINE], the inhibition result in [1] is “Dose-dependent effect”; in assay [2] it was 1.62%; in assay [3] it was 2.32%; in [4], 2.11%; in [8] it was 1.34%; in assay [9], 0.49%. Further, the inhibition in assay [10] was 0.55%; in assay [11] it was “Dose-dependent effect”. Besides, the results for the “inhibition (INH)” value in assay [5] and in [6] were 86.13% and 83.1%, respectively. Also, the IC50 entry in [7] was “Not Active”.

On to `N#Cc1c2ccccc2cn1C12CC3CC(CC(C3)C1)C2`, for which the inhibition entry in [1] was “Dose-dependent effect”; in [2], 13.5%; in [3], 32.7%; in [4], 27.8%; in assay [8], 13.2%; in assay [9], 9.98%. For the same molecule, the inhibition was 27.4% in assay [10] and “Dose-dependent effect” in assay [11]. Moreover, the “inhibition (INH)” value in assay [5] worked out at 54.24%; in assay [6], 84.01%.

`Cc1c(C)c2c(c(C)c1O)CCC(C)(C(=O)O)O2` (stereo not given): the inhibition entry in assay [1] was “Dose-dependent effect”; in assay [2], 88.5%; in assay [3], 95.1%; in [4] it was 74.6%; in assay [8], 62.8%; in assay [9], 47.6%. Also, the inhibition in [10] was 45.8%; in assay [11] it was “Dose-dependent effect”.

`O=C(NC12CC3CC(CC(C3)C1)C2)c1n[nH]c2ccccc12`: the inhibition result is “Dose-dependent effect” in [1]; 39.9% in [2]; 32.9% in assay [3]; 30.1% in assay [4]; 21.7% in [8]; 12.4% in [9]. Also, the results for the inhibition in assay [10] and in assay [11] were 28.7% and “Dose-dependent effect”, respectively. In addition, the “inhibition (INH)” value was 93.43% in [5] and 83% in [6].

Turning to `N=C(N)NN` [PIMAGEDINE], the IC50 in assay [7] (read-out: IC50) worked out at 19400 nM.

In the case of `c1ccc(CNC23OC4C5C6CC(C7C6C4C72)C53)cc1` (stereo not given), the inhibition entry in assay [1] is “Dose-dependent effect”; in assay [2] it was 8.88%; in assay [3], 9.98%; in [4], 5.99%; in [8], 7.33%; in assay [9], 2.44%. The inhibition in [10] is 0.2%; in assay [11] it was “Dose-dependent effect”. Further, the “inhibition (INH)” value is listed as 70.12% in [5] and 86.63% in [6]. Also, the IC50 result in assay [7] is reported as “Not Active”.

For the molecule `O=[N+]([O-])c1ccc(NC23CC4CC(CC(C4)C2)C3)c([N+](=O)[O-])c1`, the inhibition result in assay [1] is “Dose-dependent effect”; in assay [2], 15.7%; in assay [3], 37%; in assay [4], 36.8%; in [8], 9.73%; in assay [9], 8.21%. Moreover, the inhibition in [10] was 32.1%; in [11], “Dose-dependent effect”. Moreover, the “inhibition (INH)” value in assay [5] is 89.14%; in assay [6], 80.75%. For the same molecule, in [7], the 50% inhibitory concentration (IC50) result was “Not Active”.

For `O=C(NC12CC3CC(CC(C3)C1)C2)c1cc2ccccc2oc1=O`, the inhibition result in assay [1] is “Dose-dependent effect”; in assay [2], 93.3%; in [3] it was 91.7%; in [4], 69.8%; in assay [8], 91.8%; in [9], 87.5%. Besides, the inhibition in assay [10] is 31.8%; in assay [11], “Dose-dependent effect”. Besides, the “inhibition (INH)” value in assay [5] was 75.35%; in [6], 79.71%. The IC50 in assay [7] (read-out: IC50) worked out at 850 nM.

In the case of `CN(C)c1cccc2c(S(=O)(=O)NC34CC5CC(CC(C5)C3)C4)cccc12`, the inhibition result is “Dose-dependent effect” in assay [1]; 41.6% in [2]; 40.9% in assay [3]; 38.1% in assay [4]; 22.4% in [8]; 8.11% in [9]. The inhibition is 38% in assay [10] and “Dose-dependent effect” in assay [11]. The “inhibition (INH)” value in [5] was determined as 44.77%; in assay [6], 78.05%. Besides, in assay [7] (read-out: IC50), the IC50 was found to be 410 nM.

Regarding `CNc1ccccc1C(=O)NC12CC3CC(CC(C3)C1)C2`, the inhibition entry in assay [1] was “Dose-dependent effect”; in assay [2] it was 50.5%; in assay [3] it was 44%; in assay [4] it was 42.8%; in assay [8] it was 24.3%; in [9], 10.7%. The values for the inhibition in assay [10] and in [11] were 42.7% and “Dose-dependent effect”, respectively. Besides, the “inhibition (INH)” value is reported as 93.2% in assay [5] and 96.66% in assay [6].

In the case of `COCCOC(=O)C1=C(C)NC(C)=C(C(=O)OC(C)C)C1c1cccc([N+](=O)[O-])c1` (stereo not given) [NIMODIPINE], in [5], the “inhibition (INH)” value turned out to be 12.29%.

The record behind these values is ChEMBL document CHEMBL1795278, “Synthesis and evaluation of fluorescent heterocyclic aminoadamantanes as multifunctional neuroprotective agents” (Bioorg Med Chem, 2011).
